Test results reported in US20250127778A1, “CANCER IMMUNOTHERAPY COMPOSITION CONTAINING INTERACTION INHIBITOR OF STING AND TRIM29 AS ACTIVE INGREDIENT” (SPARK BIOPHARMA, INC, priority 2021, published 2025).

Columns and labels:
TRIM29 = target: T1, TRIM29 (Homo sapiens, UniProt Q14134); assay: ITDRF in A431 cells, TRIM29; assay type: binding; conditions: FIG. 12
T1 construct: endogenous in cells; host or cells: A431
T1 sequence (Q14134 1-588): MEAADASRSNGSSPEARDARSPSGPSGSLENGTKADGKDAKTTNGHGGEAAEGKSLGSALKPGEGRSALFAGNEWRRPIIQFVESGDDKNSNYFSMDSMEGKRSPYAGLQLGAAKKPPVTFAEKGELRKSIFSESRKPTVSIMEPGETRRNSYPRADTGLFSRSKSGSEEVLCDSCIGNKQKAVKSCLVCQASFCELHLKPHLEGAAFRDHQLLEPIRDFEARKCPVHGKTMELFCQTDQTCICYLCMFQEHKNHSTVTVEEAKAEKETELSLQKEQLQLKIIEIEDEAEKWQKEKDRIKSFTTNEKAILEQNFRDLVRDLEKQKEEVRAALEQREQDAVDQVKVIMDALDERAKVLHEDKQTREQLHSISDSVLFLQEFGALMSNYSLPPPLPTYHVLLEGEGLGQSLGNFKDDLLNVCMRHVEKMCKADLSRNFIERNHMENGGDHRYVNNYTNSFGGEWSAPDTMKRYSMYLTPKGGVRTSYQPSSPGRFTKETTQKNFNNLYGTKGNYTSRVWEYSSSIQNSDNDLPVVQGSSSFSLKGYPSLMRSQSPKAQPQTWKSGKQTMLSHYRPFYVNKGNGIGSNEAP
Text: (§1) It was verified whether the oxopiperazine derivative of the present invention was bound to STING among STING and TRIM29 to inhibit interaction thereof, based on the compound of Formula 1, by the cellular thermal shift assay (CETSA) and the isothermal dose response fingerprint (ITDRF) which were major technologies for verifying the interaction between small molecule compounds and target proteins. (D. M. Molinaetal., Science 2013, 341, 84-87.)
(§2) To verify the target of the compound of Formula 1 using the CETSA technique, the human A431 cell lines and mouse Raw264.7 cell lines were seeded on a 100-mm or 150-mm culture dish and cultured for one day. […] Afterwards, centrifugation was performed at 20000 g for 20 minutes at 4° C., the supernatant was transferred to a new container, and each concentration was measured by using the Micro BCA™ protein assay kit (ThermoFisher) according to the protocol of the manufacturer. The concentration of each sample was equally adjusted by using the RIPA lysis buffer, the 5× SDS-PAGE loading buffer (Biosesang) was added according to the ratio of the manufacturer, and the resultant was treated at 95° C. for 5 minutes and analyzed by using the Western blotting method described above.

CT26 tumor = assay: Tumor growth in CT26 in vivo syngeneic mouse model; conditions: CT26, intratumoral, FIG. 23
Method: 2×10^5 CT26 cell lines were prepared in 50 μL culture medium and subcutaneously injected. […] The cGAMP solution was manufactured with a final composition of PEG400:distilled water=40:60, and 20 μL was injected each time. The solution of the compound of Formula 1 was manufactured with the composition of DMSO:PEG400:distilled water=2:40:58, and 20 μL was injected each time. The cGAMP solution was injected once every two days, four times in total, and the solution of the compound of Formula 1 was injected once every four days, two times in total, starting with the second administration of cGAMP. The size of the tumor was measured by using calipers every two days, and the volume thereof was calculated as (length×width×height/2). The body weight of the mice was also measured every two days.

STING [1] = target: T2, STING (Mus musculus, UniProt Q3TBT3); assay: Western blotting of intracellular STING in Raw264.7 cells; assay type: cell-based; design: endogenous in cells; host or cells: Raw264.7; conditions: concentration-dependent, FIG. 16
T2 sequence (Q3TBT3 1-378): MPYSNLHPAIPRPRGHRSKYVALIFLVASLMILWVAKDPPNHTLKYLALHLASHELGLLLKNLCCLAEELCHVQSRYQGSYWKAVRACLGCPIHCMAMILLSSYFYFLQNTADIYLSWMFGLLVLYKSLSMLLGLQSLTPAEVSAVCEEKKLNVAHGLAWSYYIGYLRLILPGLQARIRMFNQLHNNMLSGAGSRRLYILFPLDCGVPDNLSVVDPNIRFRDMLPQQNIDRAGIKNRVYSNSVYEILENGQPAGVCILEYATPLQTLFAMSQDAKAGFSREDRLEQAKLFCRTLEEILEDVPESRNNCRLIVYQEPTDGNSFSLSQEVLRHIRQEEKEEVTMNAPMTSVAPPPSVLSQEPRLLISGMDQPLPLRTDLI

STING [2] = target: STING (Homo sapiens, UniProt Q86WV6); assay: Western blotting of STING under co-treatment with MG132, actinomycin D or cycloheximide; assay type: cell-based
Text: In addition, in order to cross-validate the results of the ELISA experiment, it was confirmed whether the STING increasing effect of the compound of Formula 1 was disappeared when ubiquitinated proteins were prevented from being degraded by treatment with MG132.
In addition, in order to exclude the possibility that the increase in STING expression by the compound of Formula 1 can occur through cellular mechanisms other than ubiquitin-mediated reactions, the transcription inhibitor actinomycin D (ActD) and the ribosome translation inhibitor cycloheximide (CHX) were co-treated with the compound of Formula 1, and whether the STING increase effect was still maintained was confirmed by using the Western blotting method.

STING [3] = target: T2, STING; assay: STING expression level in immune cells inside tumor by flow cytometry; assay type: in vivo; conditions: compound alone, FIG. 28
Method: As described above, after euthanasia with carbon dioxide, the tumor was extracted, TIL was separated, and intracellular STING staining was performed in the same manner as in <Example 6>.

STING [4] = target: T2, STING; assay: CETSA and ITDRF in Raw264.7 cells, STING; assay type: binding; design: endogenous in cells; host or cells: Raw264.7
Text: as §1, §2

[5] = combination with cGAMP compared with the control group

Sequence of STING (Homo sapiens, UniProt Q86WV6) (Q86WV6 whole entry H232R, species assumed): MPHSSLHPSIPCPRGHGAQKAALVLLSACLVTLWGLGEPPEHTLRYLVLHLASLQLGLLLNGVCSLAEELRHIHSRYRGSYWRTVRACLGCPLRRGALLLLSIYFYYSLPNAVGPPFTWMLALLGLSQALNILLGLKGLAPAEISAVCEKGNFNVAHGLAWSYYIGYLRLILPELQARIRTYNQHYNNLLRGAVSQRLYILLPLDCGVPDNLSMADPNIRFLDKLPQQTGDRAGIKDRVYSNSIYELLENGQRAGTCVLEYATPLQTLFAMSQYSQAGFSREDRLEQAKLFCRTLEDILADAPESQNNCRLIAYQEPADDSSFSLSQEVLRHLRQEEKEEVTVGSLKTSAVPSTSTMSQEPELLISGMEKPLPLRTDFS

COc1ccc(CC2=CN(c3ccc(C(=O)NC[C@H]4CCCO4)cc3[N+](=O)[O-])[C@H](C(C)C)C(=O)N2Cc2ccc(O)cc2)cc1 [Formula 1, 4-((R)-4-(4-hydroxybenzyl)-2-isopropyl-5-(4-methoxybenzyl)-3-oxo-3,4-dihydropyrazin-1 (2H)-yl)-3-nitro-N-(((R)-tetrahydrofuran-2-yl)methyl)benzamide]
ITDRF effect on TRIM29 (TRIM29): without affecting TRIM29 | tumor growth (CT26 tumor; combination with cGAMP compared with single treatment with cGAMP): inhibited in a concentration-dependent manner | tumor growth (CT26 tumor; [5]): inhibited | weight of the tumor extracted on the final day (CT26 tumor; [5]): reduced | intracellular amount of STING (STING [1]): increased | intracellular amount of STING under transcription and translation inhibition (STING [2]; co-treated with actinomycin D (ActD) and cycloheximide (CHX), Western blotting, FIG. 10): still increased the intracellular amount of STING | STING amount under MG132 treatment (STING [2]; co-treated with proteasome inhibitor MG132, Western blotting, FIG. 9): STING was not increased | amount of STING in tumor-associated macrophages (TAM) and dendritic cells (DC) (STING [3]; tumor extracted one day after final treatment): increased | effect of increasing STING in M1 compared to M2 macrophages (STING [3]): more noticeably exhibited in M1 macrophages | CETSA thermal stability of STING (STING [4]; FIG. 13): induced thermal destabilization by selective binding only to STING | ITDRF thermal stability of STING (STING [4]; FIG. 14): reduced the thermal stability of STING at high concentrations in a concentration-dependent manner
